Assay results: patent publication US7972615B2, “Peptide compositions for coating metal medical devices with vancomycin” (Affinergy, Inc., priority 2008, dated 2011)
Square brackets hold non-standard residues; d marks the D form. Ends that are not written are not given here. miniPeg = miniPEG linker unit; Aun = NCCCCCCCCCCC(=O)O

Legend:
[1] = format: binding; settings: FIG. 1; 18 hour incubation in 10% BSA+10 mM guanidinium chloride
Source text: In this example, illustrated are unexpected beneficial properties of the composition of the invention, including but not limited to, one or more improved biophysical properties. Such one or more unexpected beneficial properties of a composition of the invention may comprise an increase in stability. An increase in stability may comprise any one or more of resistance to chemical denaturation, resistance to proteolytic degradation, improved retention to a substrate (e.g., resistance to being competed off a substrate to which it is bound, such as by proteins or other biomolecules found in body tissues). Thus, to ascertain a beneficial property of a composition of the invention, it is compared to the properties of a component of the composition-namely, a substrate-binding peptide by itself (e.g., without fatty acid covalently coupled thereto). An assay was developed that, from our direct comparisons (see, e.g., discussion of FIG. 2 below, and Example 7 herein), mimicked the effect of incubation of substrate-binding peptide with human plasma on stability of binding of a substrate-binding peptide to its substrate. The assay utilized incubations in the presence of 10% bovine serum album (BSA) with 10 mM guanidinium chloride. The high BSA concentration mimics the elevated albumin content of human plasma, and the guanidinium chloride is used to compete with any charged interactions involved in binding of the substrate-binding peptide to its substrate.
In this assay, two immunoassay plates were prepared for a “side-by-side” comparison of binding of a test sample (substrate-binding peptide or composition of the invention) to its substrate with or without the presence of 10% BSA with 10 mM guanidinium chloride. The wells of each 96-well polypropylene plate were incubated with 350 μl BSA 1% in PBS for 30 minutes at 20° C. with 500 rpm shaking. To each well was added one acetone-cleaned 3/32″ 316LVM stainless steel bead, followed by addition of dilutions in PBS of the test sample in a range of concentrations starting from 10 μM. Final volume in each well was 200 μl. The plates were incubated for 1 hour at 20° C. with 500 rpm shaking to allow for the binding to occur. The beads were washed 3 times with 250 μl PBS using a plate washer. […]
In the immunoassay for detecting binding without the presence of 10% BSA with 10 mM guanidinium chloride, added to each well was 200 μl of streptavidin AP (AP is alkaline phosphatase) at 1/200 in TBS+1% BSA. […] When color has developed, each well was read at OD405 nm in endpoint mode using a plate reader. […] When color has developed, the wells were read at OD405 nm in endpoint mode using a plate reader. […]

[2] = Critical micelle concentration (CMC) assay with methyl orange; format: physicochemical; settings: pH 7 PBS, A484
Method: Formation of a composition of the invention, and evidence of macromolecular network formation, may be monitored or quantified by any means known in the art. In this example, macromolecular formation was detected using a standard assay for determining critical micelle concentration (“CMC”). In this assay, a solution containing the composition of the invention (in a range of concentrations in pH 7 phosphate buffered saline (“PBS”)) was mixed with a solution of methyl orange (0.04 mM in PBS), and the absorbance of the mixture was measured at 484 nm (A484). CMC is the concentration at which a sharp decrease in absorbance at A484 is observed, a change in the optical properties of methyl orange when trapped in a hydrophobic phase, such as caused by self-association as a macromolecular network (Table 7, “CMC”). Also included in this assay were an assay control peptide having an amino acid sequence of SEQ ID NO:122 (Table 7, “Control”), and compound 119 (a PEGylated peptide, the peptide having an amino acid sequence of SEQ ID NO:122, as described in more detail in Example 6 herein).

[3] = Stent flow model (in vitro model for in vivo stability on a stent); format: binding; settings: radiolabelled
Method: In this example, an in vitro model for in vivo stability on a medical device comprising a stent was performed. The stent flow model included a “circulatory system” comprising a peristaltic pump and clear silicone tubing into which is placed a stent (8 mm, stainless steel) coated with a composition according to the invention. Coating of the stents was accomplished by incubating the stents with radiolabelled composition 132 (specific activity 2,400 cpm/pmole at 20 μM in PBS) for 1 hour at 20° C., followed by extensive washing with buffer. […] In another variation of the stent flow model, 10% BSA+10 mM guanidinium chloride was circulated through the circulatory system at a flow rate of 5 ml/min for 18 hours at 37° C. After circulation in the respective variations of the stent flow model, the coated stents were then counted for radioactivity. To serve as an assay “control”, some coated stents were not placed in the stent flow model, but rather counted for radioactive counts to provide a reference from which percent retention could be calculated for those coated stents included in the stent flow model.

[4] = Vancomycin loading onto titanium bead, HPLC of HCl eluate; format: binding; settings: components mixed with vancomycin, 30 mins at 20° C., washed three times
Method: The experimental procedure used for the embodiments described above was as follows. […] All three components were mixed and then applied to the metal bead. […] All three components were mixed and then applied to the metal bead. […] The mixtures were applied to the metal beads and incubated for 30 mins at 20° C. with 700 rpm shaking. The beads were washed three times with 350ul PBS. Beads were analyzed as follows: 200 ul of 100 mM HCl was added to each bead and incubated for 30 mins at 20° C. with 1,000 rpm shaking. The eluate from each bead was analyzed by HPLC using Phenomenex Luna 3 um column, 50×4.60 mm. Output was compared to a standard curve for vancomycin to determine the amount of vancomycin retained onto the metal bead.

119: Fmoc-NH-(PEG)27-CO2H covalently coupled to a peptide having the amino acid sequence of SEQ ID NO:122 (PEGylated peptide) (SSHRTNHKKNNPKKKNKTRGSSGK; not fully specified (N-terminus); also: Fmoc-NH-(PEG)27-CO2H covalently coupled, site not given here) [Compound 119, reference compound]
retention of binding of substrate-binding peptide component to its substrate, compared to substrate-binding peptide alone (SEQ ID NO: 122) [1]: failed to promote retention

120: amino acid sequence YWAWAYAW (SEQ ID NO:129) covalently coupled to a peptide having the amino acid sequence of SEQ ID NO:122 (YWAWAYAWSSHRTNHKKNNPKKKNKTRGSSGK) [Compound 120, reference compound]
retention of binding of substrate-binding peptide component to its substrate, compared to substrate-binding peptide alone (SEQ ID NO: 122) [1]: failed to promote retention

AUD-AUD-AUD-AUD-AUD-AUD-SEQ ID NO: 122 ([Aun][Aun][Aun][Aun][Aun][Aun]SSHRTNHKKNNPKKKNKTRGSSGK) [Compound 130]
CMC [2]: 0.041 µM

AUD-AUD-AUD-AUD-SEQ ID NO: 122 ([Aun][Aun][Aun][Aun]SSHRTNHKKNNPKKKNKTRGSSGK) [Compound 122]
retention of binding of substrate-binding peptide component to its substrate, compared to substrate-binding peptide alone (SEQ ID NO: 122) [1]: significantly improved retention

AUD-AUD-K-AUD-AUD-AUD-AUD-SEQ ID NO: 122 ([Aun][Aun]K[Aun][Aun][Aun][Aun]SSHRTNHKKNNPKKKNKTRGSSGK) [Compound 123]
retention of binding of substrate-binding peptide component to its substrate, compared to substrate-binding peptide alone (SEQ ID NO: 122) [1]: significantly improved retention

Ac-Y-AUD-AUD-AUD-AUD-AUD-AUD-SEQ ID NO: 122 (Ac-Y[Aun][Aun][Aun][Aun][Aun][Aun]SSHRTNHKKNNPKKKNKTRGSSGK) [Compound 132]
composition remained bound to the coated stents ([3]; 10% BSA+10 mM guanidinium chloride circulated at 5 ml/min for 18 hours at 37° C.): over 90% | composition remained bound to the coated stents ([3]; human plasma circulated at 5 ml/min for 7 days at 37° C.): over 90%

MA-Ahx-SSCLIDIYGVCHN FDAY-miniPeg-miniPeg-HKKNNPKKKNKTRGSSK(Biotin) [SEQ ID NO: 164]
Vancomycin Load [4]: 278 pmol/cm2

SSSCLIDMYGVCHNFDGAYDSSRG-miniPeg-miniPeg-SSHRTNHKKNNPKKKNKTRGSSGK (SSSCLIDMYGVCHNFDGAYDSSRG[miniPeg][miniPeg]SSHRTNHKKNNPKKKNKTRGSSGK; cysteine pairing not given here) [SEQ ID NO: 163]
Vancomycin Load [4]: 54 pmol/cm2
